Values quoted from earlier work as cited in patent publication US11590100B2, “Composition for buccal or sublingual administration of cannabis extract and methods for making same” (PANAXIA PHARMACEUTICAL INDUSTRIES LTD., priority 2017, dated 2023).

For `CCCCCc1cc(O)c2c(c1)OC(C)(C)[C@@H]1CCC(C)=C[C@@H]21` [THC, Delta-9-tetrahydrocannabinol], the peak effect (after oral administration) is given as 2 to 4 h, the absorbed (after single oral doses) is given as 90-95% and the “administered dose reaching the systemic circulation” value (oral, first pass hepatic metabolism and poor aqueous solubility) is given as 10-20%.
